Source: patent publication US20030088061A1, “Materials and methods to modulate ligand binding/enzymatic activity of alpha/beta proteins containing an allosteric regulatory site” (priority 2000, published 2003)
Read-outs that look alike come from different tables or passages of the source.

Molecular target: T1, αEβ7 (Homo sapiens, UniProt P26010+P38570)
T1 construct: DNA encoding full-length alpha E was identified as follows; expressed in transfected cells; host or cells: JY cells, plasmid pMHneo/aE
T1 sequence (P38570 19-1179): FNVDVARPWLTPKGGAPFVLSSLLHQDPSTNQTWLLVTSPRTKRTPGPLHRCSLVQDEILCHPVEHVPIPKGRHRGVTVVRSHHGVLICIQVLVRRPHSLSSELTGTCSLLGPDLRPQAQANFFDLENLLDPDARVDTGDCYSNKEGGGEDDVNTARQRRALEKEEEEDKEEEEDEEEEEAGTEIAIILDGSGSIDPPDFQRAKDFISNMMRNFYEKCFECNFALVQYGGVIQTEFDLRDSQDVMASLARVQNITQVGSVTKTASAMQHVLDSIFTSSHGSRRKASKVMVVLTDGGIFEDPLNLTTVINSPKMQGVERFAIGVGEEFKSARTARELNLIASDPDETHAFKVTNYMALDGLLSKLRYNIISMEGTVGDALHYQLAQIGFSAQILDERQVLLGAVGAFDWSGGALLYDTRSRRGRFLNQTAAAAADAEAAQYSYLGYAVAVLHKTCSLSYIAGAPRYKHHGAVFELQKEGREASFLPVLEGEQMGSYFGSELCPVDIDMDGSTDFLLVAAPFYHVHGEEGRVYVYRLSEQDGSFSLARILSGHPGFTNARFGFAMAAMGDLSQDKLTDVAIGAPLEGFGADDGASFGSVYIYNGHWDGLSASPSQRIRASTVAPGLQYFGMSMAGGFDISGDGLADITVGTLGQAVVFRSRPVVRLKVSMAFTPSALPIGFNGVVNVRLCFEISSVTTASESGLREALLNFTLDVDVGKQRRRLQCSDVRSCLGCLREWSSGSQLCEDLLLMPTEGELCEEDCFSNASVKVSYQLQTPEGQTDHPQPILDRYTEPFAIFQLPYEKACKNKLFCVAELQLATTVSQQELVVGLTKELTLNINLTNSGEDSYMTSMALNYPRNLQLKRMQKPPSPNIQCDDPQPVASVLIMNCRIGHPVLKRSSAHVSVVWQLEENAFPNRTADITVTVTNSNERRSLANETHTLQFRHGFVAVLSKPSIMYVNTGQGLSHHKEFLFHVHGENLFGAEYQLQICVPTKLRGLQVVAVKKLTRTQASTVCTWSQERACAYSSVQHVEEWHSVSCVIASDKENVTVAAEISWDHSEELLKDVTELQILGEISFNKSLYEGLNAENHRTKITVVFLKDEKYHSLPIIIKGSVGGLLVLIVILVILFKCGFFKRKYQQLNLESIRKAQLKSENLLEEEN
T1 sequence (P26010 20-798 partner): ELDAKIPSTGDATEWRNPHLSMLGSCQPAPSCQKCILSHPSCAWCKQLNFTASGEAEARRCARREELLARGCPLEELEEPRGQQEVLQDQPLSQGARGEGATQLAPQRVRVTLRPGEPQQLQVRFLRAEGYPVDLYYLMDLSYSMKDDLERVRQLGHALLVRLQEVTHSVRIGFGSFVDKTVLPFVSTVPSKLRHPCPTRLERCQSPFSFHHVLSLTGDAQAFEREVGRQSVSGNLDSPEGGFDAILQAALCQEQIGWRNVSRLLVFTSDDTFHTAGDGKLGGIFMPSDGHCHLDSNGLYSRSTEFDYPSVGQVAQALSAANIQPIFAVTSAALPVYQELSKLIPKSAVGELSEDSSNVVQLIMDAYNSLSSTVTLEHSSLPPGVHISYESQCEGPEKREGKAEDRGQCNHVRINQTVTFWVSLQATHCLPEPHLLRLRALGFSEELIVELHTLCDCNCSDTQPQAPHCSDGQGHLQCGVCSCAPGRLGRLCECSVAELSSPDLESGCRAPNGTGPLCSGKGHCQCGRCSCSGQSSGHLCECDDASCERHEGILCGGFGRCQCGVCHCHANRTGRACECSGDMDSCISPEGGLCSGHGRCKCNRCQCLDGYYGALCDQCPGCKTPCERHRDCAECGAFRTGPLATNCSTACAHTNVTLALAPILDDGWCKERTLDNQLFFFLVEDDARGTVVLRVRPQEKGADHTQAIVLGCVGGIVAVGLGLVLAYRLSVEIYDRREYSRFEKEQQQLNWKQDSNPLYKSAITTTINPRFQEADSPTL
Assay: JY/aE+ cell adhesion to E-cadherin/Ig
Format: cell-based
Method: Adhesion media (350 μl) (RPMI 1640 containing penicillin and streptomycin, L-glutamine, NaPy, and 5% FBS) was aliquotted into each well in rows A, C, E, G of a deepwell 96-well titer plate, 2.0 ml capacity (Beckman Instruments, Inc., Fullerton, Calif.) in columns 1-11. All compounds to be screened were dissolved in DMSO to a final concentration of 10 mM. Compounds were stored at −20° C., and thawed on the day of use in a 37° C. incubator. Each compound (2.1 μl) was pipetted into a single well in columns 3-11, rows A, C, E, and G in the deepwell titer plate. To wells not containing compound (A1 & A2, C1 & C2, E1 & E2, G1 & G2), 2.1 μl DMSO was added. An anti-β7 monoclonal antibody, FIB504 (ATCC, Rockville, Md.), which blocks αEβ7 binding activity, was added to wells C2 and G2 at a concentration of 7.5 μg/ml. Each deepwell titer plate was covered to prevent dessication and stored in a 37° C. incubator until ready for use.
Adhesion assays were performed in 96-well Immunlon 4 plates (Dynex Technologies, Inc., Chantilly, Va.) as follows. Each well was coated with 50 μl E-cadherin/Ig (3.0 μg/ml) in D-PBS. Control wells were coated with capture antibody FIB504, to quantitate 100% input cell binding, or coating buffer alone to determine background binding. Following an overnight incubation at 4° C., the plates were washed three times with 200 μl/well D-PBS and blocked with 1% BSA in D-PBS for at least 1 hour. The BSA solution was removed and 100 μl of adhesion media (RPMI 1640 containing penicillin and stretomycin, L-glutamine, sodium pyruvate, 0.1% BSA, and 60 ng/ml PMA), was added to rows B through G, columns 1 through 11.
At this point, 100 μl adhesion media containing a test compound at a concentration of 60 μM, was transferred from the deepwell 96-well titer plate, in triplicate, to the E-cadherin/Ig coated adhesion plate. The outer rows were filled with 300 μl of D-PBS. These plates were transferred to a humidified 37° C. incubator with an atmosphere of 5% CO2.
The adhesion assay was initiated by addition of 100 μl of the JY/aE^+ cell suspension to each well of the E-cadherin-coated plate. The final volume in each well was 300 μl adhesion media containing […], PMA (final concentration 20 ng/ml), and the test compound (final concentration 20 μM). The plates were incubated at 37° C. for 30 min. Each compound was tested in triplicate.
Adherent cells were fixed by the addition of 50 μl of a 14% glutaraldehyde solution in D-PBS. Plates were washed with water, stained with 100 μl/well 0.5% crystal violet (Sigma Corp., St. Louis, Mo.) solution for 5 min. Three hundred microliters/well of 70% ethanol was added, and adherent cells were quantitated by determining absorbance at 570 nm. Percentage of cell binding was determined by using the mean values for each triplicate in a given assay in the following formula. [formula]
During the initial screening of test compounds, each chemical entity was tested in cell-based adhesion assays at a fixed concentration of 20 μM. Those compounds that blocked JY/αEβ7-dependent adhesion to E-cadherin/Ig by 50% or more were subsequently retested at multiple concentrations to determine the inhibitory concentration at which cell binding is reduced by 50%, i.e., the IC50 value.
For each IC50 assay, 50 μl of the ligand diluted in 50 mM bicarbonate buffer (pH 9.6) was dispensed per well of an Immulon-4 plate. A single plate was used to test two different ligands, each in triplicate, The coating concentration for the various ligands was as follows: VCAM-1/Ig at 2.0 μg/ml; ICAM-1/Ig at 5.0 μg/ml; vitronectin at 0.5 μg/ml; MAdCAM-1/Ig at 3.0 μg/ml, and iC3b at 5.0 μg/ml. The capture antibody, e.g. anti-CD18 monoclonal antibody TS1/22, was added at a concentration of 10 μg/ml in 50 μl/well. Ligand-coated plates were covered and stored overnight at 4° C. The following day, the contents of each well was decanted, and each plate was washed three times with 200 μl/well D-PBS. […]

[1] = PMA-treated JY cells, read-out: E-cadher αEβ7 IC50
[2] = reproducible inhibitory activity on re-analysis, read-out: IC50, inhibition of JY/aE+ binding to E-cadherin

Compound	IC50 [1] [µM]	IC50 [2] [µM]
CC(=O)Oc1ccccc1C(=O)n1c(-c2ccccc2)cc2ccccc21 [Cmpd D]	3	< 10
O=C(NCc1cccnc1)c1ccccc1C(=O)Nc1sc2ccccc2c1Cl [Cmpd K]	3	< 10
Nc1ccc(Sc2ccc(NC(=O)CCc3ccccc3)cc2)c(Cl)c1 [Cmpd W]	5	< 10
CC(CN(C)C)NCc1ccccc1Sc1ccc(C(C)(C)C)cc1 (centres unmarked) [Cmpd Z]	3	< 10
